Read-outs that look alike come from different tables or passages of the source.
Tests used:
[1] = target: Cys242 in human PIK3CA (157-299) (Homo sapiens (Human), UniProt P42336); test: Covalent modification assay using MALDI-TOF MS; assay type: biochemical; settings: 4 h reaction time point
Outline: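 PIK3CA (157-299) at 3.33 μM or 1 μM in 20 mM HEPES, 150 mM NaCl, 2 mM MgCl2, pH 7.3 was incubated with compound (from 10 mM DMSO stocks) in the dark at room temperature for 15 min, 30 min, 2 h or 4 h. Linear-mode MALDI-TOF peak heights gave percent modification.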

pAKT in BT474 cells = test: Cell-based pAKT HTRF assay in BT474 cells; settings: BT474 cells, 4 hr incubation, read-out: pAKT inhibition IC50 in BT474 cells
Outline: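 Cells are seeded on day 1 and dosed on day 2 with a 9-point curve (3 μM top, 3-fold). After 4 hr they are lysed and the lysate is mixed with d2- and Eu Cryptate-labelled antibodies. HTRF is read after 4–24 h at room temperature.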

[2] = 1 μM protein target, 1:5 protein to compound ratio (compounds 853-1279)
[3] = 3.33 μM protein target, 1:7.5 protein to compound ratio (compounds 1-852)

Cys242 in human PIK3CA (157-299), sequence (P42336 157-299): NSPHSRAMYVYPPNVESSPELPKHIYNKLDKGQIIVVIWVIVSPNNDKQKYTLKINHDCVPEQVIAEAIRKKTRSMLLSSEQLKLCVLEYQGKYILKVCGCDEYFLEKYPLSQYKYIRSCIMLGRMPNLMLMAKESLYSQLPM

SMILES: C=CC(=O)N1CCn2nc(-c3nc(-c4ccc5c(=O)n(C)ncc5c4)c4ccsc4c3-c3c(F)cc(F)cc3OCCO)cc2[C@H]1C [Compound 889]
- % of modification [1, 2]: A (percent of modification of PIK3CA protein ≥75%)
- IC50 (pAKT in BT474 cells; Compounds 10-999): < 100 nM

SMILES: C=CC(=O)N1CC(n2cc(-c3nc(-c4ccc5c(c4)CCNC5)c4ccsc4c3-c3ccc(F)cc3OCCOC)ncc2=O)C1 [Compound 210]
- % of modification [1, 3]: A (percent of modification of PIK3CA protein ≥75%)
- IC50 (pAKT in BT474 cells; Compounds 10-999): < 100 nM

SMILES: C=CC(=O)N1CCn2nc(-c3nc(-c4cncc(C#N)c4)c4ccsc4c3-c3c(F)cc(F)cc3OC[C@@H](C)O)cc2[C@@H]1C [Compound 676]
- % of modification [1, 3]: A (percent of modification of PIK3CA protein ≥75%)
- IC50 (pAKT in BT474 cells; Compounds 10-999): < 100 nM

SMILES: C=CC(=O)N1CCn2nc(-c3nc(-c4ccc5cn(C)nc5c4)c4ccsc4c3-c3c(F)cc(F)cc3OCCOC)cc2[C@H]1C [Compound 747]
- % of modification [1, 3]: A (percent of modification of PIK3CA protein ≥75%)
- IC50 (pAKT in BT474 cells; Compounds 10-999): < 100 nM

SMILES: C=CC(=O)N1CCn2nc(-c3nc(-c4cnnc(C5CC5)c4)c4ccsc4c3-c3c(F)cc(F)cc3OCCOC)cc2C1C (stereo not shown) [Compound 1030]
- % of modification [1, 2]: A (percent of modification of PIK3CA protein ≥75%)
- IC50 (pAKT in BT474 cells; Compounds 1000-1279): < 100 nM

SMILES: C=CC(=O)N1CCn2nc(-c3nc(-c4ccnc(N(C)C)c4)c4ccsc4c3-c3c(F)cc(F)cc3OCCO)cc2C1C (stereo not shown) [Compound 960]
- % of modification [1, 2]: A (percent of modification of PIK3CA protein ≥75%)
- IC50 (pAKT in BT474 cells; Compounds 10-999): < 100 nM

SMILES: C=CC(=O)N1CCn2nc(-c3nc(N4CCC5(CC4)COC5)c4ccsc4c3-c3ccc(F)cc3OC(C)C)cc2C1 [Compound 207]
- % of modification [1, 3]: A (percent of modification of PIK3CA protein ≥75%)
- IC50 (pAKT in BT474 cells; Compounds 10-999): < 100 nM

SMILES: C=CC(=O)N1CCn2nc(-c3nc(-c4ccc5oc(C)nc5c4)c4ccsc4c3-c3c(F)cc(F)cc3OCCO)cc2[C@@H]1C [Compound 654]
- % of modification [1, 3]: A (percent of modification of PIK3CA protein ≥75%)
- IC50 (pAKT in BT474 cells; Compounds 10-999): < 100 nM

SMILES: C=CC(=O)N1CCn2nc(-c3nc(-c4ccc5c(c4)CCN(C)C5)c4ccsc4c3-c3c(F)cc(F)cc3OC(C)C)cc2[C@@H]1C [Compound 502]
- % of modification [1, 3]: A (percent of modification of PIK3CA protein ≥75%)
- IC50 (pAKT in BT474 cells; Compounds 10-999): < 100 nM

SMILES: C=CC(=O)N1CC(n2cc(-c3nc(N4CCC5(CC4)CS(=O)(=O)C5)c4ccsc4c3-c3ccc(F)cc3OCCOC)cn2)C1 [Compound 149]
- % of modification [1, 3]: A (percent of modification of PIK3CA protein ≥75%)
- IC50 (pAKT in BT474 cells; Compounds 10-999): 100 to 1000 nM

SMILES: C=CC(=O)N1CCn2nc(-c3nc(-c4cnn(C)c4)c4ccsc4c3-c3c(F)cc(F)cc3OC[C@@H](C)O)cc2[C@@H]1C [Compound 547]
- % of modification [1, 3]: A (percent of modification of PIK3CA protein ≥75%)
- IC50 (pAKT in BT474 cells; Compounds 10-999): < 100 nM

SMILES: C=CC(=O)N1Cc2cc(-c3nc(-c4ccc5c(c4)CCN(C)CC5)c4ccsc4c3-c3c(F)cc(F)cc3OCCOC)nn2C[C@H]1C [Compound 841]
- % of modification [1, 3]: A (percent of modification of PIK3CA protein ≥75%)
- IC50 (pAKT in BT474 cells; Compounds 10-999): < 100 nM

SMILES: C=CC(=O)N1CCc2nc(-c3nc(-c4ccc5c(c4)CNC5=O)c4ccsc4c3-c3c(F)cc(F)cc3OCCO)sc2C1 [Compound 1052]
- % of modification [1, 2]: A (percent of modification of PIK3CA protein ≥75%)
- IC50 (pAKT in BT474 cells; Compounds 1000-1279): < 100 nM

SMILES: C=CC(=O)N1CCn2nc(-c3nc(-c4ccc(OC5CN(C)C5)cc4)c4ccsc4c3-c3c(F)cc(F)cc3OCCOC)cc2C1C (stereo not shown) [Compound 1094]
- % of modification [1, 2]: A (percent of modification of PIK3CA protein ≥75%)
- IC50 (pAKT in BT474 cells; Compounds 1000-1279): < 100 nM

SMILES: C=CC(=O)N1CCn2nc(-c3nc(-c4ccc5c(c4)CCN(C)C5)c4ccsc4c3-c3c(F)cc(F)cc3OCCO)cc2C1C (stereo not shown) [Compound 533]
- % of modification [1, 3]: A (percent of modification of PIK3CA protein ≥75%)
- IC50 (pAKT in BT474 cells; Compounds 10-999): < 100 nM

SMILES: C=CC(=O)N1CCc2nc(-c3nc(-c4ccc(N5CCNCC5)nc4)c4ccsc4c3-c3ccc(F)cc3OCCOC)sc2C1 [Compound 174]
- % of modification [1, 3]: A (percent of modification of PIK3CA protein ≥75%)
- IC50 (pAKT in BT474 cells; Compounds 10-999): < 100 nM

SMILES: C=CC(=O)N1Cc2cc(-c3nc(-c4ccc5ncn(C)c(=O)c5c4)c4ccsc4c3-c3c(F)cc(F)cc3OCCOC)nn2C[C@H]1C [Compound 842]
- % of modification [1, 3]: A (percent of modification of PIK3CA protein ≥75%)
- IC50 (pAKT in BT474 cells; Compounds 10-999): < 100 nM

SMILES: C=CC(=O)N1Cc2cc(-c3nc(-c4cc(C)ncn4)c4ccsc4c3-c3c(F)cc(F)cc3OCCOC)nn2CC1C (stereo not shown) [Compound 850]
- % of modification [1, 3]: A (percent of modification of PIK3CA protein ≥75%)
- IC50 (pAKT in BT474 cells; Compounds 10-999): < 100 nM

SMILES: C=CC(=O)N1C[C@H](C)n2nc(-c3nc(-c4ccc5ncn(C)c5c4)c4ccsc4c3-c3c(F)cc(F)cc3OCCOC)cc2[C@@H]1C [Compound 602]
- % of modification [1, 3]: A (percent of modification of PIK3CA protein ≥75%)
- IC50 (pAKT in BT474 cells; Compounds 10-999): < 100 nM

SMILES: C#CC(=O)N1CCn2nc(-c3nc(-c4ccc5c(cnn5C)c4)c4ccsc4c3-c3c(F)cc(F)cc3OCCOC)cc2[C@H]1C [Compound 1229]
- % of modification [1, 2]: A (percent of modification of PIK3CA protein ≥75%)
- IC50 (pAKT in BT474 cells; Compounds 1000-1279): > 1000 nM

SMILES: COCCOc1cc(F)cc(F)c1-c1c(-c2cc3n(n2)CCN(C#N)C3C)nc(-c2ccc3c(cnn3C)c2)c2ccsc12 (stereo not shown) [Compound 1233]
- % of modification [1, 2]: D (percent of modification <25%)
- IC50 (pAKT in BT474 cells; Compounds 1000-1279): 100 to 1000 nM

SMILES: C=CC(=O)N1CCn2nc(-c3nc(-c4ccc(N5CCN(C)CC5)cc4)c4ccsc4c3-c3c(F)cc(F)cc3OCCOC)cc2C1C (stereo not shown) [Compound 1082]
- % of modification [1, 2]: A (percent of modification of PIK3CA protein ≥75%)
- IC50 (pAKT in BT474 cells; Compounds 1000-1279): < 100 nM

SMILES: C=CC(=O)N1CCn2nc(-c3nc(-c4ccc5c(c4)CCN(CC(F)F)CC5)c4ccsc4c3-c3c(F)cc(F)cc3OCCOC)cc2C1C (stereo not shown) [Compound 1122]
- % of modification [1, 2]: A (percent of modification of PIK3CA protein ≥75%)
- IC50 (pAKT in BT474 cells; Compounds 1000-1279): < 100 nM

SMILES: C=CC(=O)N1CCn2nc(-c3nc(-c4ccc5ncn(C)c5c4)c4ccsc4c3-c3c(F)cc(F)cc3OCCOC)cc2C1C (stereo not shown) [Compound 552]
- % of modification [1, 3]: A (percent of modification of PIK3CA protein ≥75%)
- IC50 (pAKT in BT474 cells; Compounds 10-999): < 100 nM

SMILES: C=CC(=O)N1CCC(n2cc(-c3nc(-c4ccc5c(c4)CNC(=O)C5)c4ccsc4c3-c3ccc(F)cc3)cn2)CC1 [Compound 69]
- % of modification [1, 3]: A (percent of modification of PIK3CA protein ≥75%)
- IC50 (pAKT in BT474 cells; Compounds 10-999): 1000 to 3000 nM

SMILES: C=CC(=O)N1CCn2nc(-c3nc(-c4cncc(OC5CN(C)C5)c4)c4ccsc4c3-c3c(F)cc(F)cc3OCCOC)cc2C1C (stereo not shown) [Compound 1203]
- % of modification [1, 2]: A (percent of modification of PIK3CA protein ≥75%)
- IC50 (pAKT in BT474 cells; Compounds 1000-1279): < 100 nM

SMILES: C=CC(=O)N1Cc2cc(-c3nc(-c4cnn(C(F)F)c4)c4ccsc4c3-c3c(F)cc(F)cc3OCCOC)nn2CC1C (stereo not shown) [Compound 772]
- % of modification [1, 3]: A (percent of modification of PIK3CA protein ≥75%)
- IC50 (pAKT in BT474 cells; Compounds 10-999): < 100 nM

SMILES: C=CC(=O)N1CCc2nc(-c3nc(-c4ccc(=O)n(C)c4)c4ccsc4c3-c3c(F)cc(F)cc3OC(C)C)sc2C1 [Compound 348]
- % of modification [1, 3]: A (percent of modification of PIK3CA protein ≥75%)
- IC50 (pAKT in BT474 cells; Compounds 10-999): < 100 nM

SMILES: C=CC(=O)N1CCc2nc(-c3nc(-c4ccc5c(c4)CCN(C)C5)c4ccsc4c3-c3c(F)cc(F)cc3OCCOC)sc2C1 [Compound 369]
- % of modification [1, 3]: A (percent of modification of PIK3CA protein ≥75%)
- IC50 (pAKT in BT474 cells; Compounds 10-999): < 100 nM
